We go through one molecule from patent US20190070174A1, “METHODS OF TREATING NEURODEGENERATIVE DISEASES” (priority 2016, published 2019).

The test system of series [1] is ATXN3Q81.Luc fusion protein. The series is described as follows: Confirmation dose-response, ATXN3 levels by immunoblotting. In kind it is cell-based, human. As to conditions: 293.ATXN3Q81Luc cells. The text has this: Full-length ATXN3 (Accession number ABS29269) carrying either a normal or an expanded polyQ tract (Q26 or Q81) was subcloned in the vector pcDNA3.1 FLAG.firefly Luciferase. The mammalian expression plasmids pcDNA.FLAG.ATXN3Q26.Luc and pcDNA.FLAG.ATXN3Q81.Luc were confirmed by sequencing and shown to express N-terminal FLAG-tagged ATXN3Q26 or ATXN3Q81 fused with firefly Luciferase (Luc), respectively. These neomycin-resistant plasmids were transfected into HEK293 cells using Lipofectamine LTX (Invitrogen) during four hours, after which medium was replaced by growth medium (DMEM/10% fetal bovine serum (FBS)/1% penicillin/streptomycin (PS)). […] After one month of passage in selection medium, stably transfected clones for each cell line (293.ATXN3Q26Luc and 293.ATXN3Q81Luc) were pooled and frozen in liquid nitrogen. Stably transfected cell lines were maintained in selection medium except during treatment with specific compounds that were diluted in growth medium.
Protein lysates from cell cultures, mouse brain slices or mouse brains were obtained by lysis in RIPA buffer containing protease inhibitors (Complete, Roche Diagnostics), followed by sonication and centrifugation. The supernatants (soluble protein fractions) were collected, total protein concentration was determined using the BCA method (Pierce) and then stored at −80° C. Total proteins (50 μg from cell and slice cultures or 75 μg from brain regions of mice) were resolved in 10% SDS-PAGE gels, and corresponding PVDF membranes were incubated overnight at 4° C. with primary antibodies: mouse anti-ATXN3 (1H9) (1:2000; MAB5360, Millipore), goat anti-Luciferase (1:500; G7451, Promega), mouse anti-FLAG (M5) (1:500; IB13091, Sigma), rabbit anti-LC3 (1:500; PM036, MBL International Corporation), mouse anti-HSP90β (1:1000; ADI-SPA842, Enzo Life Sciences), rabbit anti-HSP90α (1:1000; ab2928, Abcam), mouse anti-HSP70 (1:500; SPA810, Enzo Life Sciences), rabbit anti-HSP40 (1:1000; #4868, Cell Signaling), rabbit anti-HSP25 (1:1000; ADI-SPA801, Enzo Life Sciences), rabbit anti-HSF1 (1:1000, ADI-SPA-901, Enzo Life Sciences), rabbit anti-ubiquitin (1:1000, Z 0458, Dako), rabbit anti-RAD23A (1:5000; TA307264, Origene), rabbit anti-RAD23B (1:2000; A302-306A, Bethyl Labs), rabbit anti-α-Tubulin (11H10) (1:10000; #2125, Cell Signaling), and mouse anti-GAPDH (1:1000; MAB374, Millipore). Pellets corresponding to insoluble protein fractions were resuspended in 100 μL of Laemmli buffer 2× and boiled for 10 min. Insoluble proteins were then quantified, and 100 μg were loaded in a filter trap assay apparatus and transferred to a nitrocellulose membrane (0.45 μm pore) that was incubated overnight with rabbit anti-MJD antibody (1:5000) at 4° C. Bound primary antibodies were visualized by incubation with a peroxidase-conjugated anti-mouse or anti-rabbit secondary antibody (1:10000; Jackson Immuno Research Laboratories) followed by treatment with the ECL-plus reagent (Western Lighting, PerkinElmer) and exposure to autoradiography films. Band intensity was quantified by densitometry using ImageJ.

For series [2], the system named is MJD/SCA3 flies. As to the kind of experiment: Survival of MJD/SCA3 flies. Type of series: in vivo, Drosophila. Conditions: 50 μM in food from eclosion. The procedure: Drosophila stocks were reared on standard cornmeal media at 25° C. in diurnal environments with ˜60% humidity. […] Full-length human ATXN3 cDNA with 77 CAG was cloned into pWalium10-moe (Perrimon Lab, Harvard Medical School). Flies that carry ATXN3 in site attP2 or the empty vector control into the same site as the most isogenic control line were generated. Injections were done into y[1], w[*]; +; attP2 (landing site). […] Adult flies of the following genotypes, w[*]; sqh-Gal4/+; UAS-ataxin-3Q77/+ or w[*], sqh-Gal4/+; Empty-Vector-Control/+ were switched from standard media to instant media as soon as they eclosed from their pupal case (day 0), and thereafter maintained on instant media with vehicle compound. Media was switched every three days, and death was noted daily.
At least 200 flies in groups of 9 to 17 flies per treatment vial were monitored.

The nature of series [3]: Pharmacokinetics after intraperitoneal injection. Conditions: 15 mg/kg IP, mice. Type of series: in vivo, mouse.
For series [4], the system named is 5HT2A transcripts. The series is described as follows: Subchronic treatment of Q84 mice, quantitative RT-PCR. As to conditions: brainstem of Q84 mice. In kind it is in vivo, mouse. The method, then:
YACMJD84.2 transgenic mice were housed in cages with a maximum number of five animals and maintained in a standard 12-hour light/dark cycle with food and water ad libitum. Genotyping was performed using DNA isolated from tail biopsy at the time of weaning, and genotypes of all studied mice were confirmed using DNA extracted from tails collected post-mortem. […] Five hours after the final injection, mice were anesthetized with ketamine/xylazine and perfused transcardially with phosphate buffered saline (PBS) (for RNA and protein studies), and brains were immediately placed on dry ice and stored at −80° C.
Reverse transcription of 1.5 μg of total RNA per sample was performed using the iScript cDNA synthesis kit (Bio-RAD). Human ATXN3 and mouse Atxn3, Drd2, 5HT1A, 5HT2A and Gapdh (housekeeping) transcript levels were accessed by quantitative real-time PCR. Relative gene expression was determined using the ΔΔCT method, normalizing for Gapdh mRNA levels.

The conditions of series [5]: mouse, in vivo; cited from earlier work.

With `O=C1CCc2ccc(OCCCCN3CCN(c4cccc(Cl)c4Cl)CC3)cc2N1` [aripiprazole], the “levels of ATXN3Q81.Luc fusion protein” value in series [1] is “confirmed to decrease levels of ATXN3Q81.Luc fusion protein”. Further, in series [2], the “increased mean survival compared with vehicle-treated flies” value is 1.3 days. Besides, the mean survival in series [2] (vehicle-treated 7.7±0.343) amounted to 9.0 ± 0.367 days. Also, the “time of maximal concentration in the brain post-injection” value in series [3] was 30 min. Further, the 5HT2A transcripts entry in series [4] is listed as “increasing”. The maximum tolerable dose in series [5] is on record as 15 mg/kg.
